For twelve compounds, IC50 and activity results are on record in patent publication US7659277B2, “Ubiquitin ligase inhibitors and methods related thereto” (Proteologies, Ltd., priority 2003, dated 2010).

pIC50: −log10 of the molar value.

One test deals with T1, POSH (Homo sapiens, UniProt Q7Z6J0).
T1 construct: GST-POSH lot NB81/p.118 3.6 mg/ml; fused on or other part: GST tag, used for detection with anti-GST XL665
T1 sequence (Q7Z6J0 1-269 limits assumed): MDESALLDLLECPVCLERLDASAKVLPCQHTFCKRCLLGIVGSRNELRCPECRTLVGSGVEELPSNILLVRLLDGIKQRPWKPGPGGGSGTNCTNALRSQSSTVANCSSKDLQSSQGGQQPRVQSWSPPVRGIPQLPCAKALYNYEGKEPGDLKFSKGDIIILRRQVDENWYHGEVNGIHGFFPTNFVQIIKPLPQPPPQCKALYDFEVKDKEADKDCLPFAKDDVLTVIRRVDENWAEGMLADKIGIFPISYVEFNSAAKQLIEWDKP
In words: IC50 assay procedure: GST-POSH auto-ubiquitination, homogeneous time-resolved fluorescence (Ub-cryptate / anti-GST XL665). Format: biochemical. The following applies: ubiquitin ligase activity of POSH; GST-POSH 33 nM, 30 min preincubation. A digest of the protocol:
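GST-POSH (33 nM) preincubated 30 min at RT with compounds (DMSO dilution series), then added to E1/E2/Eu-cryptate-ubiquitin enzyme mix for 30 min at 37 °C. Stopped with EDTA, anti-GST XL665 added 45 min at RT; HTRF signal of POSH auto-ubiquitination read, triplicates, IC50 from concentration series.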

Another test concerns HIV-1. In words: HIV maturation (budding) in virus-like particle assay, HIV-1 p24 antigen ELISA. The test is classed as cell-based. To be noted: Human immunodeficiency virus 1, read-out: Budding (3 μM). An excerpt: Compounds were further assessed for effects on maturation of HIV particles in a virus-like particle assay.

Broadly, the pIC50 is the negative decadic logarithm of the IC50, by convention in mol/L.

Take `COc1ccc(NC(=O)c2cc3cccc(N)c3cc2O)cc1` [Compound 114]: on POSH, the pIC50 is 6.52. Also, the activity at 3 µM in the test with HIV-1 is 46%.
Turning to `N=C1NC(=O)/C(=C\c2ccc(-c3ccc(I)cc3)o2)S1` [Compound 29], the pIC50 against POSH was 6.15. The activity at 3 µM in the test on HIV-1 was 63%.
For the compound `Cc1ccc2nsnc2c1/N=C/c1c(O)ccc2ccccc12` [Compound 53], the pIC50 against POSH is 6.30. Moreover, the activity at 3 µM with HIV-1 is 64%.
For the compound `COc1ccc(N2C(=O)NC(=O)/C(=C\C=C\c3ccccc3)C2=O)cc1` [Compound 8], at POSH, the pIC50 is 6.30. In the test on HIV-1, the activity at 3 µM was found to be 67%.
Turning to `O=[N+]([O-])c1ccc(CN2CCN(c3cccc(Cl)c3)CC2)o1` [Compound 80], the pIC50 against POSH was 6.30. The activity at 3 µM in the test with HIV-1 is 55%.
In turn, `CC(C)(C)c1ccc(O)c(/N=C/C=C/c2cccc([N+](=O)[O-])c2)c1` [Compound 59] had a pIC50 on POSH of 6.30. For the same compound, the activity at 3 µM in the test with HIV-1 was determined as 61%.
On to `C=CCN1C(=O)NC(=O)/C(=C\c2ccccc2)C1=O` [Compound 2], for which, at POSH, the pIC50 is 6.15. The activity at 3 µM in the test on HIV-1 was determined as 66%.
The like results for `O=c1/c(=C/c2ccc(N3CCOCC3)cc2)sc2nc3ccccc3n12` [Compound 32] were, in that order, 6.30 and 67%.
The like results for `O=C1C=CC(=O)N1c1ccccc1Cl` [Compound 18] were, in that order, 6.15 and 41%.
For `O=C1NC(=O)C(=Cc2ccc(-c3cc(Cl)ccc3Cl)o2)C(=O)N1` [Compound 1], the pIC50 against POSH is 6.70. Besides, the activity at 3 µM with HIV-1 was found to be 46%.
Compound `Cc1ccc(/N=C/c2cc(Br)cc(Br)c2O)c(C)c1` [Compound 54] gave a negative-log IC50 (pIC50) against POSH of 6.30. Further, the activity at 3 µM in the test with HIV-1 turned out to be 54%.
Take `O=C1C=CC(=O)N1c1ccc(Cl)cc1` [Compound 19]: the negative logarithm of the IC50 (pIC50) against POSH was 6.15. In the test on HIV-1, the activity at 3 µM was determined as 52%.
